Laboratory results: a melting point compilation (Tetko et al.; mined from patent text by program, amines drawn as free bases though some values may be those of a salt)

In the case of `CNc1ccc2c(C)nc(CC3OC(COC(=O)c4ccccc4)C(O)C3O)n2n1` (stereo not given), the melting point is reported as 163 to 165 °C. For `CCCCCCCCCCCCOCC(C=CC(=O)N(C)C)(C=CC(=O)N(C)C)COCCCCCCCCCCCC`, the melting point was 52 to 54 °C. `CC(C)c1cc(CCC(=O)OCC(C)(C)C2OCC3(CO2)COC(C(C)(C)COC(=O)CCc2cc(C(C)C)c(O)c(C(C)(C)C)c2)OC3)cc(C(C)(C)C)c1O` (stereo not given) gave a melting point of 47 to 57 °C. In the case of `Cc1noc(-c2ccc(CN3C(=O)C4(COc5cc6c(cc54)OCCO6)c4ccccc43)cc2)n1` (stereo not given), the melting point is reported as 177 to 178 °C. In the case of `Cc1ccc2c(n1)sc1c(S)nnnc12`, the melting point is reported as 205 to 208 °C. `CN(C)C(=O)c1ccc(C(C)(C)C)c(N)c1` gave a melting point of 186 to 188 °C. Compound `COc1ccc(-c2cc3ccccc3[nH]2)cc1OC` has a melting point of 188 °C. `CCn1ncnc1COc1nn2c(-c3c(F)cccc3F)nnc2cc1C(C)(C)C` showed a melting point of 182 °C. With `CCOC(=O)NNC(=O)NCCCl` the melting point was 118 to 120 °C. `O=C(c1cc(O)ccc1Nc1ccncc1)N1CCCCC1` showed a melting point of 242 to 243 °C. In the case of `CCCCCCCCOc1ccc(-c2ccc(O)c(F)c2F)cc1`, the melting point is reported as 145 °C. For `N#Cc1cncc(I)c1Cl`, the melting point was 120 to 122 °C. Compound `CCOC(=O)C(=O)Nc1ccc(S(=O)(=O)NC(=O)C(=O)OCC)c(C(F)(F)F)c1` has a melting point of 161 to 162 °C. For `O=c1[nH]c2cc(Cl)ccc2c(=O)c(-c2ccccc2)c1O`, the melting point was 193 to 196 °C. Compound `O=C(O)CCCCCNC(=O)c1cn2c3c(cccc13)CCC2` has a melting point of 158 to 161 °C. With `O=Cc1ccc(-c2ccc(-c3ccc(C=O)o3)cn2)cc1` the melting point was 204 to 206 °C. With `Cc1cn(-c2ccc(F)cc2)c2ccc(Br)cc12` the melting point was 97 to 98 °C. Work on `COC(=O)c1oc2cc3ccccc3cc2c1OC` yielded a melting point of 121 to 124 °C. For `CC1(C)OC(=O)Nc2ccc(-c3cccc(Br)c3)cc21`, the melting point was 174 to 175 °C. `COc1ccc(Nc2ccc(O)cc2)c(C(C)=O)c1` showed a melting point of 118 to 119 °C. For `COc1cccc2c1nc(C(F)F)n2-c1nc(-c2ccc(N)nc2)nc(N2CCOCC2)n1`, the melting point was 259 to 261 °C. For `O=C(Nc1nnc(SCc2ccccc2)s1)C1CC1`, the melting point was 182 to 184 °C. In the case of `CC(=O)Nc1nc2c(s1)-c1nc(-c3ccccc3)ncc1C2`, the melting point is reported as > 300 °C. `CN1CCc2c(c3cc(F)ccc3n2CCc2nc(-c3ccccc3)cs2)C1` gave a melting point of 136 to 137 °C. `Cc1nc(N)nc(N)c1-c1cc(I)ccc1Cl` showed a melting point of 232 to 234 °C. With `CC1(C)CCC(C)(C)c2cc(CC#Cc3ccc(C(=O)N4CCOCC4)cc3)ccc21` the melting point was 98 to 99 °C. In the case of `COC(=O)COc1ccc(NC(=O)NC(=O)c2ccc(C#N)cc2)cc1`, the melting point is reported as 214 to 217 °C. With `NCCc1c[nH]c2ccc3c(=O)n(CC4CCCCO4)ccc3c12` (stereo not given) the melting point was 260 to 262 °C. Work on `FC(F)(F)c1cc2[nH]c(N3CCN(c4ncccc4Cl)CC3)nc2cc1Cl` yielded a melting point of 209 to 211 °C. `CSC(=NC(=O)OC(C)(C)C)NNC(=O)NC(=O)OCc1ccccc1` gave a melting point of 120 to 123 °C. `O=[N+]([O-])c1cc(C(F)(F)F)c(Cl)c([N+](=O)[O-])c1Nc1cc(C(F)(F)F)cc(C(F)(F)F)n1` gave a melting point of 169 to 170 °C. For `COCCCC#Cc1ccccc1S(N)(=O)=O`, the melting point was 59 to 61 °C. With `CC(=O)Oc1c(C(C)C)cc(C(=O)Nc2cnc3c(C)cc(C)cc3c2-c2ccccc2Cl)cc1C(C)C` the melting point was 195 to 196 °C. With `COC(=O)c1cccc(-n2cncn2)c1` the melting point was 115 to 120 °C. `CCCC1C(C(=O)OCC)C(O)(C(F)(F)F)OC(O)(C(F)(F)F)C1C(=O)OCC` (stereo not given) gave a melting point of 128 to 132 °C. With `Cc1ncc([N+](=O)[O-])n1CCN1C(=O)C2c3cccc4cccc(c34)C2C1=O` (stereo not given) the melting point was 183 to 185 °C. Compound `COc1ccc2c(Cc3c(Cl)cncc3Cl)nnc(NN)c2c1` has a melting point of 297 to 299 °C. With `CP(=O)(O)c1ccc(C(=O)O)cc1` the melting point was 238 to 240 °C. With `CCOC(=O)C(C)(C)Oc1ccc(-c2ccc(CCNC(=O)c3c(OC)cccc3OC)cc2)cc1` the melting point was < 20 °C. With `Cc1ccc(S(=O)(=O)ON=C2CC(c3ccccc3)Oc3ccccc32)cc1` (stereo not given) the melting point was 141 to 143 °C.
